Consider two compounds from US20250241901A1, “ACTIVATION OF MNRR1 / CHCHD2 AS A THERAPEUTIC TARGET FOR MITOCHONDRIA ASSOCIATED DISORDERS” (Wayne State University, priority 2024, published 2025).

For one assay, the system named is HIF2α. The experiment in a line: HIF2α transcript levels (RT-PCR). Type of assay: cell-based, human. Particulars: 18S rRNA as housekeeper. The text has this: FIG. 13: RT-PCR for measuring HIF2α levels. 18S rRNA was used as housekeeper for both analyses (n=3 biological replicates).
Real-time polymerase chain reaction (RT-PCR): Total cellular RNA was extracted from MELAS cells with a RNeasy Plus Mini Kit (Qiagen) according to the manufacturer's instructions. Complementary DNA (cDNA) was generated by reverse transcriptase polymerase chain reaction (PCR) using the ProtoScript® II First Strand cDNA Synthesis Kit (New England Biolabs, Ipswich, MA). Transcript levels were measured by real time PCR using SYBR green on an ABI 7500 system. Real-time analysis was performed by the ΔΔ^Ct method. The primers used were MNRR1 forward: 5′-[…]-3′ (SEQ ID NO: 9), reverse: 5′-[…]-3′ (SEQ ID NO: 10); 18s forward: 5′-[…]-3′ (SEQ ID NO: 11), reverse: 5′-[…]-3′ (SEQ ID NO: 12), PHD1(EGLN2) forward: 5′-[…]-3′ (SEQ ID NO: 13), reverse: 3′-TCCTTGGCATCAAAATACC-5′ [32](SEQ ID NO: 14); PHD3(EGLN3) forward 5′-[…]-3′ (SEQ ID NO: 15), reverse: 3′-ATGCAGGTGATGCAGCGA-5′ [33](SEQ ID NO: 16) and HIF2α (EPAS1) forward: 5′-[…]-3′ (SEQ ID NO: 17), reverse: 3′-[…]-5′ (SEQ ID NO: 18).

The next assay deals with PHD3. The experiment in a line: PHD3 protein levels in MELAS cybrid cells (immunoblot). Format: cell-based, human. The note with it: 10 μM, 24 h. On the procedure: FIGS. 14A-14D: PHD3 levels are reduced in MELAS cybrid cells and enhanced by nitazoxanide to increase MNRR1 levels. FIG. 14A: Transcript levels of PHD1, 2, and 3 in MELAS cybrid cells harboring the levels of heteroplasmy shown (data from). FIG. 14B: Protein levels of PHD3 in MELAS cybrid cells with 0% (CL9) and 70% heteroplasmy (DW7). GAPDH was probed as loading control. FIG. 14C: Equal amounts of MELAS cybrid cell lysates, treated with vehicle (DMSO), nitazoxanide, or tizoxanide (10 μM) for 24 h, were separated on an SDS-PAGE gel and probed for PHD1, PHD3, MNRR1, and Tubulin. FIG. 14D: Oxygen consumption measured from MELAS cybrid cells overexpressing PHD1 or PHD3. (n=4 biological replicates, error bars show SE).
Immunoblotting: Immunoblotting was performed as described previously. Cell lysates for immunoblotting were prepared using RIPA buffer (Abcam, Waltham, MA) and included a protease and phosphatase inhibitor cocktail (Sigma, St. Louis, MO). Total protein extracts were obtained by centrifugation at 21,000×g for 30 min at 4° C. The clear supernatants were transferred to new tubes and quantified using the Bradford reagent with BSA as standard (BioRad, Hercules. CA). […] For detection after immunoblotting, the SuperSignal™ West Pico PLUS substrate (ThermoFisher, Waltham, MA) was used to generate chemiluminescence signal, which was detected with X-Ray film (RadTech, Vassar, MI).

Another assay concerns MNRR1. The experiment in a line: MNRR1 transcript levels in MELAS cells (RT-PCR). Type of assay: cell-based, human. Particulars: relative to 18S rRNA. On the procedure:
FIGS. 6A-6C: FIG. 6A: Above, Chemical structures of nitazoxanide, its metabolites, and similar compounds. Abbreviations: P4, Phenyl-4-aminosalicylic acid; 4ABA, 4-Aminobenzanilide; 4ASA, 4-Amino salicylic acid; BA, Benzanilide; PBO, Phenyl benzoate; PSA, Phenyl salicylic acid; 2AN, 2-Amino 5-nitrothiazole. Below, Equal amounts of lysates of MELAS cells treated with Vehicle (DMSO) or the various compounds (10 μM) for 24 h were separated on an SDS-PAGE gel and probed for MNRR1 levels. Actin was probed as a loading control and numbers below represent an average and SD of 3 biological replicates. FIGS. 6B-6C: MNRR1 transcript levels are shown relative to 18S rRNA (n=4 biological replicates, error bars represent SE). In all figures, * indicates p<0.05, ** indicates p<0.005.
Real-time polymerase chain reaction (RT-PCR): Total cellular RNA was extracted from MELAS cells with a RNeasy Plus Mini Kit (Qiagen) according to the manufacturer's instructions. Complementary DNA (cDNA) was generated by reverse transcriptase polymerase chain reaction (PCR) using the ProtoScript® II First Strand cDNA Synthesis Kit (New England Biolabs, Ipswich, MA). Transcript levels were measured by real time PCR using SYBR green on an ABI 7500 system. Real-time analysis was performed by the ΔΔ^Ct method. […]

The subject of assay [1] is inflammatory factors such as ll6, ll1b, Tnf, and Tlr4. The experiment in a line: High-throughput RT qPCR of inflammatory factors in decidua. Format: in vivo, mouse. The note with it: LPS-injected dams. On the procedure:
FIGS. 3A & 3B. The transcript levels of several inflammatory factors such as 116, Illb, Tnf, and Tlr4, among others, were assessed in the decidual samples and increased expression was found in dams intra-amniotically injected with LPS that was abrogated upon treatment with nitazoxanide.
High-throughput RT qPCR: This was performed as previously described (Motomura et al., JCI Insight, 7, 2022). Briefly, total RNA was isolated from decidua with RNeasy Mini Kits (Qiagen), according to the manufacturer's instructions. RNA concentrations, purity, and integrity were evaluated with the NanoDrop 8000 spectrophotometer (Thermo Scientific, Wilmington, DE, USA) and the Bioanalyzer 2100 (Agilent Technologies, Wilmington, DE, USA). cDNA was synthesized by using SuperScript IV VILO Master Mix (Invitrogen by Thermo Fisher Scientific Baltics UAB, Vilnius, Lithuania). Gene expression profiling of the tissues was performed on the BioMark System for high-throughput RT-qPCR (Fluidigm, San Francisco, CA, USA) or the ABI 7500 Fast real-time PCR system (Applied Biosystems, Life Technologies Corporation, Pleasanton, CA, USA) with the TaqMan gene expression assays (Applied Biosystems, Life Technologies Corporation). […] Data were normalized by using multiple reference genes (Gusb, Hsp90abl, Gapdh, and Actb) averaged within each sample, and relative changes in transcript levels were calculated by the AACt method. […]
A general note: Real-time PCR tracks product formation cycle by cycle.

Take `CC(=O)Oc1ccccc1C(=O)Nc1ncc([N+](=O)[O-])s1` [nitazoxanide, Nitazoxanide]: the HIF2α transcript levels entry with HIF2α was “absence of any change”. For the same compound, the PHD3 protein level entry in the assay with PHD3 was “increasing”. Besides, the MNRR1 transcription entry in the assay with MNRR1 is recorded as “induced its transcription”. In assay [1], the “LPS-increased transcript levels of inflammatory factors in decidual samples” value is reported as “abrogated”.

With `O=C(Nc1ncc([N+](=O)[O-])s1)c1ccccc1O` [tizoxanide, Tizoxanide], the HIF2α transcript levels result in the assay on HIF2α is on record as “absence of any change”. In the assay with PHD3, the PHD3 protein level entry was “most increased”. Further, the MNRR1 transcription result with MNRR1 was “induced its transcription”.
